According to patent publication US20100311714A1, “1H-IMIDAZO[4,5-c]QUINOLINONE COMPOUNDS” (priority 2009, published 2010):
Where two headings read alike, the source gives them in different places.

Key:
mTOR = biological target: T1, mTOR (Homo sapiens, UniProt P42345); experiment: Biochemical assay for m-TOR by TR-FRET
T1 construct: purchased Invitrogen Corporation (Carlsbad/Calif., USA) PV4753
Procedure, shortened: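 mTOR (0.5 nM) phosphorylates GFP-4EBP1 (400 nM) with 8 μM ATP at rt in 50 mM HEPES pH 7.5, 10 mM MnCl2, 50 mM NaCl, 1 mM EGTA, 1 mM DTT; compounds 0.003–10 μM final. EDTA stop with Tb-anti-p4EBP1[pT46] antibody (0.5 nM); TR-FRET read after 15 min against no-enzyme and vehicle controls.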

[1] = system: PKB Ser473 phosphorylation in Rat1-myr-HA-p110 delta cells; experiment: Reverse protein array, PKB Ser473 phosphorylation in Rat1-myr-HA-p110 delta cells; assay type: cell-based; settings: Rattus norvegicus, 0.5 h, 30 minutes compound incubation, read-out: p-PKB/IC50_delta
[2] = Parallel Artificial Membrane Permeability Assay (PAMPA) at pH 6.8; assay type: physicochemical
Procedure, shortened: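 PAMPA permeability measured at pH 6.8 following the Wohnsland and Faller method; value reported as log Pe.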

T1 sequence (P42345 1360-2549 limits assumed): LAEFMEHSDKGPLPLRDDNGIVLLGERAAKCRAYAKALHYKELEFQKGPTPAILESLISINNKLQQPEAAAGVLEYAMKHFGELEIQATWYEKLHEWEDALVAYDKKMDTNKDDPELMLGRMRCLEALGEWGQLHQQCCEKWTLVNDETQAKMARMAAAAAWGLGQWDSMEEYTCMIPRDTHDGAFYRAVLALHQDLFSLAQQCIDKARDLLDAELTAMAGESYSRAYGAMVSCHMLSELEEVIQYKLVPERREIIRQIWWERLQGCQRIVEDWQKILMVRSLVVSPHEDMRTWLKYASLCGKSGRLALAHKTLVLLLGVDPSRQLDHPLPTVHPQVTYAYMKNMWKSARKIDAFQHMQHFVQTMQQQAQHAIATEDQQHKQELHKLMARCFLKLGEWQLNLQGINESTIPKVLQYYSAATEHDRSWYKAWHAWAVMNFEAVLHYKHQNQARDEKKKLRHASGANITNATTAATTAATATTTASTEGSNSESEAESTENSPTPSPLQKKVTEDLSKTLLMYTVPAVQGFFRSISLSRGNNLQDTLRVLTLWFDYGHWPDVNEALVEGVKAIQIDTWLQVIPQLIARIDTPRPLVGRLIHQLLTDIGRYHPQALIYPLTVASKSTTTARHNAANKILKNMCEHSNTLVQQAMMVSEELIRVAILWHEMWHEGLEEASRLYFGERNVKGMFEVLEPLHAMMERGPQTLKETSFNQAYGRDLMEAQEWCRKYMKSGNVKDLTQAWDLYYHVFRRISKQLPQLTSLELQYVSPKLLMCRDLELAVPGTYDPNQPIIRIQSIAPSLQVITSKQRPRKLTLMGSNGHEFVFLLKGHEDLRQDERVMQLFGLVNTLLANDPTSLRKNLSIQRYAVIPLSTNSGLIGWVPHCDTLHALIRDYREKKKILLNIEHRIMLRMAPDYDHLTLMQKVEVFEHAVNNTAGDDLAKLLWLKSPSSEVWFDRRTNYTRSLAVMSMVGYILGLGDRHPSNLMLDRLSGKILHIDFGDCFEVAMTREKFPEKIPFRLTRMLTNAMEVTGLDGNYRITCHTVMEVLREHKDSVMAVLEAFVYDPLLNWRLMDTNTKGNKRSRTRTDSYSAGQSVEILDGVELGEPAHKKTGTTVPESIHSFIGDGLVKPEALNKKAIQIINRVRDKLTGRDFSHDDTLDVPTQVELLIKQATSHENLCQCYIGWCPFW

Row | SMILES | IC50 (mTOR; read-out: EPK_mTOR/IC50) | IC50 [1] | HT-Perm logPe pH6.8 [2] | IC50 (mTOR; read-out: mTOR/IC50) | HT-perm/logPe pH6.8 [2]
1 | CCOc1cc(-c2ccc3ncc4c(c3c2)n(-c2ccc(OCCOC)nc2C)c(=O)n4C)cnc1COC [Example 22.1, 8-(5-Ethoxy-6-methoxymethyl-pyridin-3-yl)-1-[6-(2-methoxy-ethoxy)-2-methyl-pyridin-3-yl]-3-methyl-1,3-dihydro-imidazo[4,5-c]quinolin-2-one] | 98 nM | 207 nM | −3.8 |  | 
2 | CNc1ncc(-c2ccc3ncc4c(c3c2)n(-c2ccc(N3CC(O)C3)nc2C)c(=O)n4C)cc1F [Example 29.3, 8-(5-Fluoro-6-methylamino-pyridin-3-yl)-1-[6-(3-hydroxy-azetidin-1-yl)-2-methyl-pyridin-3-yl]-3-methyl-1,3-dihydro-imidazo[4,5-c]quinolin-2-one] | 8 nM | 65.3 nM | −5.1 |  | 
3 | CNc1ncc(-c2ccc3ncc4c(c3c2)n(-c2ccc(N3CC[C@H](O)C3)nc2C)c(=O)n4C)cc1C(F)(F)F [Example 32.5, 1-[6-((S)-3-Hydroxy-pyrrolidin-1-yl)-2-methyl-pyridin-3-yl]-3-methyl-8-(6-methylamino-5-trifluoromethyl-pyridin-3-yl)-1,3-dihydro-imidazo[4,5-c]quinolin-2-one] | 9 nM | 16 nM | −4.5 |  | 
4 | COc1ccc(-c2ccc3ncc4c(c3c2)n(-c2cccnc2C)c(=O)n4C)cn1 [Example 2.12, 8-(6-Methoxy-pyridin-3-yl)-3-methyl-1-(2-methyl-pyridin-3-yl)-1,3-dihydro-imidazo[4,5-c]quinolin-2-one] |  | 79.8 nM |  | 74 nM | −3.3

More lines, in order of falling IC50 [1], values ahead:

Row | IC50 (mTOR; read-out: EPK_mTOR/IC50) | IC50 [1] | HT-Perm logPe pH6.8 [2] | IC50 (mTOR; read-out: mTOR/IC50) | HT-perm/logPe pH6.8 [2] | SMILES
5 |  | 204 nM |  | 166 nM | −4.0 | CCOc1ncc(-c2ccc3ncc4c(c3c2)n(-c2cccnc2C)c(=O)n4C)cn1 [Example 2.5, 8-(2-Ethoxy-pyrimidin-5-yl)-3-methyl-1-(2-methyl-pyridin-3-yl)-1,3-dihydro-imidazo[4,5-c]quinolin-2-one]
6 |  | 75.5 nM |  | 389 nM | −4.0 | Cc1cccnc1-n1c(=O)n(C)c2cnc3ccc(-c4cnc(N)c(C(F)(F)F)c4)cc3c21 [Example 3.12, 8-(6-Amino-5-trifluoromethyl-pyridin-3-yl)-3-methyl-1-(3-methyl-pyridin-2-yl)-1,3-dihydro-imidazo[4,5-c]quinolin-2-one]
7 | < 3 nM | 10.3 nM | −6.1 |  |  | Cc1nc(N2CCN(C)C(=O)C2)ccc1-n1c(=O)n(C)c2cnc3ccc(-c4cnc(N)c(C(F)(F)F)c4)cc3c21 [Example 21.1, 8-(6-Amino-5-trifluoromethyl-pyridin-3-yl)-3-methyl-1-[2-methyl-6-(4-methyl-3-oxo-piperazin-1-yl)-pyridin-3-yl]-1,3-dihydro-imidazo[4,5-c]quinolin-2-one]
8 |  | 8.01 nM |  | 4 nM | −4.5 | COc1ncccc1-n1c(=O)n(C)c2cnc3ccc(-c4cnc5[nH]ccc5c4)cc3c21 [Example 1.2, 1-(2-Methoxy-pyridin-3-yl)-3-methyl-8-(1H-pyrrolo[2,3-b]pyridin-5-yl)-1,3-dihydro-imidazo[4,5-c]quinolin-2-one]
